Assay results as given in PMC4457528, “Identification of Novel Small Molecule Inhibitors of Oncogenic RET Kinase” (PLoS ONE, 2015).
Read-outs that look alike come from different tables or passages of the source.

Columns and labels:
Assay in all cases: KinomeScan kinase panel, single concentration 10 µM
Format in all cases: binding
[1] = target: T1, KinomeScan kinase panel (Homo sapiens, UniProt Q06418); conditions: kinase TYRO3; 10 µM; read-out: score (%)
T1 construct: purchased DiscoveRx (KinomeScan)
T1 sequence (Q06418 41-890): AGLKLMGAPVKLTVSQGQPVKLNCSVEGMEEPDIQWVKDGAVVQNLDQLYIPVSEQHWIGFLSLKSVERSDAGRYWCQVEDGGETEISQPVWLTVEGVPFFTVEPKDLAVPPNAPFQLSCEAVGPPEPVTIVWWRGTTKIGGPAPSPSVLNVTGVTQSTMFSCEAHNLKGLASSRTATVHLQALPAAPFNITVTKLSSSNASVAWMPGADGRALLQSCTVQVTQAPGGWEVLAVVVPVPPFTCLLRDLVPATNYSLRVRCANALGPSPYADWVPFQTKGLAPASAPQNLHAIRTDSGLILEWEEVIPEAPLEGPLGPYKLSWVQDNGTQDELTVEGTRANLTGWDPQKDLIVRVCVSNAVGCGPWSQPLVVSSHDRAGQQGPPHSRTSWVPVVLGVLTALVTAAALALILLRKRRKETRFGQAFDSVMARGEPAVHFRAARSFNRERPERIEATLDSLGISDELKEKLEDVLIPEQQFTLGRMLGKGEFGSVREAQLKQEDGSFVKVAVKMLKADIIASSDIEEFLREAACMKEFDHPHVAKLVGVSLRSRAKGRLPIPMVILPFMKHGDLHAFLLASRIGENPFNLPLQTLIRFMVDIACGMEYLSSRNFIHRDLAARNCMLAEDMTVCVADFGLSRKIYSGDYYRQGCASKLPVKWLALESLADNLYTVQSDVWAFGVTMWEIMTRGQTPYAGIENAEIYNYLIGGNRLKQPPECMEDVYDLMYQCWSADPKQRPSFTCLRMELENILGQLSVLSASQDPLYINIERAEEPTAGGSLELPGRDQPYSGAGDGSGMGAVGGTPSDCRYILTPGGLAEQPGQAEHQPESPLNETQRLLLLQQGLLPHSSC

[2] = target: T2, KinomeScan kinase panel (Homo sapiens, UniProt Q9Y6E0); conditions: MST3, 10 µM
T2 construct: purchased DiscoveRx (KinomeScan)
T2 sequence (Q9Y6E0 whole entry): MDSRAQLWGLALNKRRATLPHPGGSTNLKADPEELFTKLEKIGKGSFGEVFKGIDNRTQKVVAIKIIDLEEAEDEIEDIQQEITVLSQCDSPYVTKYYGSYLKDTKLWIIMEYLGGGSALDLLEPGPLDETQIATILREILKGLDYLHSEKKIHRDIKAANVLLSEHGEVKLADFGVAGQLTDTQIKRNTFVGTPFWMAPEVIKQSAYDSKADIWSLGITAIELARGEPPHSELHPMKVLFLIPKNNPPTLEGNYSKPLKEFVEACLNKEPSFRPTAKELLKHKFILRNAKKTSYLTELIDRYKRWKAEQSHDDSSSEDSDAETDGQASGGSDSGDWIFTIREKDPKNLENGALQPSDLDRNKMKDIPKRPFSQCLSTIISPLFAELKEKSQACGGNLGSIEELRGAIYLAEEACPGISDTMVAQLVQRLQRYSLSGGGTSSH

[3] = target: T3, KinomeScan kinase panel (Homo sapiens, UniProt P07949, M918T); conditions: read-out: score (%)
T3 construct: purchased DiscoveRx (KinomeScan)
T3 sequence (P07949 29-1114 M918T): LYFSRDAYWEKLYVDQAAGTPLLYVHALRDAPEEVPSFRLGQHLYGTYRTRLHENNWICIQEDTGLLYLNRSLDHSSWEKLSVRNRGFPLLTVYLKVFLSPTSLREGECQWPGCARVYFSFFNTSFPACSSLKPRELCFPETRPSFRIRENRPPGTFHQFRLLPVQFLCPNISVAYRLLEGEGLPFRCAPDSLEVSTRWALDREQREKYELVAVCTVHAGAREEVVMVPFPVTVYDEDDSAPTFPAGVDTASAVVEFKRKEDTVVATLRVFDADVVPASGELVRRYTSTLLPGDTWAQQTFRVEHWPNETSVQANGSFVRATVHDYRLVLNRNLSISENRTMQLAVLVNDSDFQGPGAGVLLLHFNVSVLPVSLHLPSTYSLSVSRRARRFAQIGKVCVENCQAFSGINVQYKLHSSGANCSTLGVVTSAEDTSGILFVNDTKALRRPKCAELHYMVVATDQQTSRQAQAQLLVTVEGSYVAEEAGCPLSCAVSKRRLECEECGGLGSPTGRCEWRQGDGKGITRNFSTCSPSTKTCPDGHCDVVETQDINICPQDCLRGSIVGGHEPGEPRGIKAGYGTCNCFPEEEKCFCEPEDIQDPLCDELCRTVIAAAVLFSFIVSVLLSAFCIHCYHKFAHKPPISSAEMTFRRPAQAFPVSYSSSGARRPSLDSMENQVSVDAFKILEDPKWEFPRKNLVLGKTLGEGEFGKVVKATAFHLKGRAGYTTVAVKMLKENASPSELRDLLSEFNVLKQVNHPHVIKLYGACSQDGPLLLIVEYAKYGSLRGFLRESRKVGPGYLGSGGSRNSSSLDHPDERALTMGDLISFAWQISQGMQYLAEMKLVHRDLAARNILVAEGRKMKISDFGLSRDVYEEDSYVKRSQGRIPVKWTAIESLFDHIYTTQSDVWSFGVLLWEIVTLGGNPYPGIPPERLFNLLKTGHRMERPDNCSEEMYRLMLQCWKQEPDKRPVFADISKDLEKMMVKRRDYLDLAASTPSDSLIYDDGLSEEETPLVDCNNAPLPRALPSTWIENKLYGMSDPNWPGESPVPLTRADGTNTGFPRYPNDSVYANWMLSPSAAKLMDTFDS

[4] = target: T4, KinomeScan kinase panel (Homo sapiens, UniProt O14976); conditions: GAK, 10 µM; read-out: score (%)
T4 construct: purchased DiscoveRx (KinomeScan)
T4 sequence (O14976 1-1311): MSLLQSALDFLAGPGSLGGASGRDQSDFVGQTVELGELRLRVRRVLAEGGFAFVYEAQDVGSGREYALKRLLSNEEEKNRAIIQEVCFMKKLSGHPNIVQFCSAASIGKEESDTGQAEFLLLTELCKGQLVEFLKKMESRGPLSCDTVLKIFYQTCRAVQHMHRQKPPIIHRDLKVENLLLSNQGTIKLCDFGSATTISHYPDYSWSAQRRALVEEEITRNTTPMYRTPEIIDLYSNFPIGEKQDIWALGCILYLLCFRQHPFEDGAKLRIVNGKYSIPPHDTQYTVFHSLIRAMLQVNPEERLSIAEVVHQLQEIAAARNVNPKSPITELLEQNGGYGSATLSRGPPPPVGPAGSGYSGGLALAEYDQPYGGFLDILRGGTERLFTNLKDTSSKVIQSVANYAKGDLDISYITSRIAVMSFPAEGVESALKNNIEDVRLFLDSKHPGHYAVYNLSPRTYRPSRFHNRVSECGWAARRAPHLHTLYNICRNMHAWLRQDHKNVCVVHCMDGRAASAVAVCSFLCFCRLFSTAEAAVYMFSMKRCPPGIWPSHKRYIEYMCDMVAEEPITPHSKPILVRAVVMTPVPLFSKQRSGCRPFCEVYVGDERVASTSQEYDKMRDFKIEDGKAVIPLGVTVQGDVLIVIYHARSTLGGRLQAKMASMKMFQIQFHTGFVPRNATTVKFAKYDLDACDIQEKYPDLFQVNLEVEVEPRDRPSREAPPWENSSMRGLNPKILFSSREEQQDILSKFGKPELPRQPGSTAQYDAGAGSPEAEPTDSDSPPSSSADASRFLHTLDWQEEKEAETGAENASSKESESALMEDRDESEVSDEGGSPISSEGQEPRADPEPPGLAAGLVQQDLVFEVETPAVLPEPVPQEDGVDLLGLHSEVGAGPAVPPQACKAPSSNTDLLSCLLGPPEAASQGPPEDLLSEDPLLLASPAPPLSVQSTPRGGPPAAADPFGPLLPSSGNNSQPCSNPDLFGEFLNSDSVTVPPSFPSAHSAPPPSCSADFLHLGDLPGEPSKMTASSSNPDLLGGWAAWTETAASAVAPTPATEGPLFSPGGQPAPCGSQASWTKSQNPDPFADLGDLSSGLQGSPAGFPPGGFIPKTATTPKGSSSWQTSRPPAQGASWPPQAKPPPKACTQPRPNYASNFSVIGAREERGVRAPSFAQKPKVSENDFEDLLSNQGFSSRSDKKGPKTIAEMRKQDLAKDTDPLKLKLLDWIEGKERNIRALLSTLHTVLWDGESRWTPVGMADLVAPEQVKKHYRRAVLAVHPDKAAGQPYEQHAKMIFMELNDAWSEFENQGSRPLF

[5] = target: T5, KinomeScan kinase panel (Homo sapiens, UniProt P00519, E255K); conditions: 10 µM, read-out: score (%)
T5 construct: purchased DiscoveRx (KinomeScan)
T5 sequence (P00519 whole entry E255K): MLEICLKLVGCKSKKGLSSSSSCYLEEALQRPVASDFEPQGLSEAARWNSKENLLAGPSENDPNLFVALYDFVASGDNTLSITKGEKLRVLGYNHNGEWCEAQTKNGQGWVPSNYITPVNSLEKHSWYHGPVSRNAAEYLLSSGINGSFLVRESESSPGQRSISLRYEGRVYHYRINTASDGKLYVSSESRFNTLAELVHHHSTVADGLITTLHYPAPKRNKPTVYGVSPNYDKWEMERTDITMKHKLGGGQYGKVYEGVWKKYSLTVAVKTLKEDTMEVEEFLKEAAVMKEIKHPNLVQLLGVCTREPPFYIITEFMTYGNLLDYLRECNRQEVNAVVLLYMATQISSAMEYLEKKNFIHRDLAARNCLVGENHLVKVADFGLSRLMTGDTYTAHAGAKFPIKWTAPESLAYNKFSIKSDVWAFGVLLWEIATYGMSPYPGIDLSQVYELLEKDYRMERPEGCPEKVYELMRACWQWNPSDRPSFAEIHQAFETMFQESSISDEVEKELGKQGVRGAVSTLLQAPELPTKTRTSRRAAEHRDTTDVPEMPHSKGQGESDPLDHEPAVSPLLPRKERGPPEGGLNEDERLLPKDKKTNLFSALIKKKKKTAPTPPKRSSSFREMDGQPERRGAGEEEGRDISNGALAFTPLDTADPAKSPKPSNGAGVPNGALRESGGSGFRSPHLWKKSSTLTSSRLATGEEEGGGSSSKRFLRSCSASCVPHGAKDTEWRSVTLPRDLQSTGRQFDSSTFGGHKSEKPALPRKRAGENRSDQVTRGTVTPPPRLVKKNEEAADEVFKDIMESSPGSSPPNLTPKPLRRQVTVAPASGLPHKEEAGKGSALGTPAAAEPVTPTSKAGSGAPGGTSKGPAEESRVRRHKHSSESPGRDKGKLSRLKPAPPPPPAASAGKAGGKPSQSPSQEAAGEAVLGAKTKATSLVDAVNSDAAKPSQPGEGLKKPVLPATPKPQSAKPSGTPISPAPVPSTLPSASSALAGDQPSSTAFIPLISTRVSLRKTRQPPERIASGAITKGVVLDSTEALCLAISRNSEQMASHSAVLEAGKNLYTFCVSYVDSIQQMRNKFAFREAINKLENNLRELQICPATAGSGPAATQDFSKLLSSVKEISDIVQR

| remaining binding at 10 µM ([3]; RET(M918T), 10 µM) [%] | SMILES | remaining binding at 10 µM [1] [%] | score (%) [2] | remaining binding at 10 µM [3] [%] | remaining binding at 10 µM [4] [%] | remaining binding at 10 µM ([5]; ABL1(E255K)) [%] | remaining binding at 10 µM ([3]; kinase RET(M918T), 10 µM) [%] | remaining binding at 10 µM ([5]; ABL1(E255K)-phosphorylated) [%] |
| --- | --- | --- | --- | --- | --- | --- | --- | --- |
|  | CCN1CCN(Cc2ccc(NC(=O)c3ccc(C)c(NC(=O)c4cncc(-c5cccs5)c4)c3)cc2C(F)(F)F)CC1 [ALW-II-41-27] | > 30 | nb (Hits values higher than 30% were considered negative (no binding: nb)) | 0 | 1.6 | 7.2 |  |  |
| 0 | CCN1CCN(Cc2ccc(NC(=O)c3ccc(C)c(/C=C/c4cnc5[nH]ccc5c4Cl)c3)cc2C(F)(F)F)CC1 [HG-6-63-01, (E)-3-(2-(4-chloro-1H-pyrrolo[2,3-b]pyridin-5-yl)vinyl)-N-(4-((4-ethylpiperazin-1-yl)methyl)-3-(trifluoromethyl)phenyl)-4-methylbenzamide] | > 30 | nb (Hits values higher than 30% were considered negative (no binding: nb)) |  | 4.3 | 1.3 |  |  |
|  | CCN1CCN(Cc2ccc(NC(=O)c3ccc(C)c(C#Cc4cccnc4)c3)cc2C(F)(F)F)CC1 [XMD15-44] | 100 | 2.8% |  | 7.4 |  | 0 | 0.05 |
